ChEMBL document CHEMBL1134276, “Synthesis and antibacterial activity of acylides (3-O-acyl-erythromycin derivatives): a novel class of macrolide antibiotics” (2001)
In brackets after ≈: the same amount, converted by molar mass.

Legend:
Haemophilus influenzae = test: In vitro antibacterial activity against erythromycin-susceptible Hemophilus influenzae ATCC 43095 strain; format: functional
Streptococcus pneumoniae [1] = test: In vitro antibacterial activity against constitutively MLS B resistant […] strain encoded by an ermB gene; format: functional
Enterococcus faecium [2] = test: In vitro antibacterial activity against erythromycin-susceptible Enterococcus faecium ATCC 29212 strain; format: functional
Streptococcus pneumoniae [3] = test: In vitro antibacterial activity against erythromycin efflux resistant Streptococcus pneumoniae 210 strain; format: functional
Enterococcus faecalis [4] = test: In vitro antibacterial activity against erythromycin-susceptible Enterococcus faecalis ATCC 19434 strain; format: functional
Staphylococcus aureus [5] = test: In vivo Minimum inhibitory conc against erythromycin susceptible Staphylococcus aureus strain Smith by mouse protection test; format: functional
Streptococcus pneumoniae [6] = test: In vitro antibacterial activity against erythromycin- susceptible Streptococcus pneumoniae IID553 strain; format: functional
Staphylococcus aureus [7] = test: (§1) In vivo effective dose against erythromycin susceptible Staphylococcus aureus Smith strain by mouse protection test(95% confidence limits); format: functional
Staphylococcus aureus [8] = test: In vitro antibacterial activity against erythromycin-susceptible Staphylococcus aureus 209P-JC strain; format: functional
Staphylococcus aureus [9] = test: In vitro antibacterial activity against constitutively MLS B resistant Staphylococcus aureus SR138 strain encoded by an ermA gene; format: functional
Staphylococcus aureus [10] = test: In vitro antibacterial activity against an inducibly MLS B resistant Staphylococcus aureus B1 strain; format: functional
Streptococcus pneumoniae [11] = test: In vitro antibacterial activity against MLS-B resistant Streptococcus pneumoniae 221 strain encoded by an erm B gene; format: functional
Staphylococcus aureus [12] = test: In vitro antibacterial activity against constitutively MLS B resistant Staphylococcus aureus SR138 strain; format: functional
Enterococcus faecalis [13] = test: In vitro antibacterial activity against erythromycin-susceptible Enterococcus faecalis ATCC 29212 strain; format: functional
Enterococcus faecium [14] = test: In vitro antibacterial activity against erythromycin-susceptible Enterococcus faecium ATCC 19434 strain
Streptococcus pneumoniae [15] = test: In vitro antibacterial activity against erythromycin-susceptible Streptococcus pneumoniae IID553 strain; format: functional
Staphylococcus aureus [16] = test: In vitro antibacterial activity against inducibly MLS B resistant Staphylococcus aureus B1 strain; format: functional
Mus musculus [17] = test: as §1; format: functional
Staphylococcus aureus [18] = test: In vivo Minimum inhibitory conc against erythromycin susceptible Staphylococcus aureus Smith strain by mouse protection test; format: functional
Enterococcus faecium [19] = test: In vitro antibacterial activity against erythromycin-susceptible Enterococcus faecium ATCC 19434 strain; format: functional
Mus musculus [20] = test: In vivo effective dose against erythromycin susceptible Staphylococcus aureus strain Smith by mouse protection test; format: functional
Staphylococcus aureus [21] = test: In vivo minimum inhibitory concentration against erythromycin susceptible Staphylococcus aureus Smith strain by mouse protection test; format: functional

| Compound | MIC (Staphylococcus aureus [8]) | MIC (Staphylococcus aureus [9]) | MIC (Staphylococcus aureus [10]) | also measured |
| --- | --- | --- | --- | --- |
| CC[C@H]1OC(=O)[C@H](C)[C@@H](O[C@H]2C[C@@](C)(OC)[C@@H](O)[C@H](C)O2)[C@H](C)[C@@H](O[C@@H]2O[C@H](C)C[C@H](N(C)C)[C@H]2O)[C@](C)(O)C[C@@H](C)C(=O)[C@H](C)[C@@H](O)[C@]1(C)O [ERYTHROMYCIN] | – | – | – | MIC (Haemophilus influenzae): 6.25 mg/L (≈ 8.52 µM); MIC (Streptococcus pneumoniae [1]): > 100 mg/L; MIC (Enterococcus faecium [2]): 1.56 mg/L (≈ 2.13 µM); MIC (Streptococcus pneumoniae [3]): 1.56 mg/L (≈ 2.13 µM); MIC (Enterococcus faecalis [4]): 3.13 mg/L (≈ 4.26 µM); MIC (Staphylococcus aureus [5]): 0.2 mg/L (≈ 0.273 µM); MIC (Streptococcus pneumoniae [6]): 0.1 mg/L (≈ 0.136 µM); ED50 (Staphylococcus aureus [7]): 56.6 mg/kg |
| CC[C@H]1OC(=O)[C@H](C)[C@@H](OS(=O)(=O)Cc2ccccc2)[C@H](C)[C@@H](OC2O[C@H](C)C[C@H](N(C)C)C2O)[C@@](C)(OC)C[C@@H](C)C(=O)[C@H](C)[C@@H](O)[C@]1(C)O (stereo partly specified) | > 100 mg/L | – | – | – |
| CC[C@H]1OC(=O)[C@H](C)[C@@H](OC2CCCCO2)[C@H](C)[C@@H](OC2O[C@H](C)C[C@H](N(C)C)C2O)[C@@](C)(OC)C[C@@H](C)C(=O)[C@H](C)[C@@H](O)[C@]1(C)O (stereo partly specified) | 12.5 mg/L (≈ 18.5 µM) | > 100 mg/L | > 100 mg/L | – |
| CC[C@H]1OC(=O)[C@H](C)[C@@H](OC(C)=O)[C@H](C)[C@@H](OC2O[C@H](C)C[C@H](N(C)C)C2O)[C@@](C)(OC)C[C@@H](C)C(=O)[C@H](C)[C@@H](O)[C@]1(C)O (stereo partly specified) | 50 mg/L (≈ 79.1 µM) | > 100 mg/L | > 100 mg/L | – |
| CC[C@H]1OC(=O)[C@H](C)[C@@H](OC(=O)c2ccc([N+](=O)[O-])cc2)[C@H](C)[C@@H](OC2O[C@H](C)C[C@H](N(C)C)C2O)[C@@](C)(OC)C[C@@H](C)C(=O)[C@H](C)[C@@H](O)[C@]1(C)O (stereo partly specified) | 50 mg/L (≈ 67.7 µM) | > 100 mg/L | > 100 mg/L | – |
| CC[C@H]1OC(=O)[C@H](C)[C@@H](OC(=O)CNC(=O)OC(C)(C)C)[C@H](C)[C@@H](OC2O[C@H](C)C[C@H](N(C)C)C2O)[C@@](C)(OC)C[C@@H](C)C(=O)[C@H](C)[C@@H](O)[C@]1(C)O (stereo partly specified) | 12.5 mg/L (≈ 16.7 µM) | > 100 mg/L | > 100 mg/L | – |
| CC[C@H]1OC(=O)[C@H](C)[C@@H](OC(=O)CN)[C@H](C)[C@@H](OC2O[C@H](C)C[C@H](N(C)C)C2O)[C@@](C)(OC)C[C@@H](C)C(=O)[C@H](C)[C@@H](O)[C@]1(C)O (stereo partly specified) | 12.5 mg/L (≈ 19.3 µM) | > 100 mg/L | > 100 mg/L | – |
| CC[C@H]1OC(=O)[C@H](C)[C@@H](O[C@H]2C[C@@](C)(OC)[C@@H](O)[C@H](C)O2)[C@H](C)[C@@H](O[C@@H]2O[C@H](C)C[C@H](N(C)C)[C@H]2O)[C@](C)(OC)C[C@@H](C)C(=O)[C@H](C)[C@@H](O)[C@]1(C)O [CLARITHROMYCIN] | 0.1 mg/L (≈ 0.134 µM) | – | – | MIC (Streptococcus pneumoniae [11]): > 100 mg/L; MIC (Staphylococcus aureus [12]): > 100 mg/L; MIC (Enterococcus faecalis [13]): 1.56 mg/L (≈ 2.09 µM); MIC (Enterococcus faecium [14]): 1.56 mg/L (≈ 2.09 µM); MIC (Haemophilus influenzae): 6.25 mg/L (≈ 8.36 µM); MIC (Streptococcus pneumoniae [15]): 0.05 mg/L (≈ 0.0668 µM); MIC (Staphylococcus aureus [16]): > 100 mg/L; MIC (Streptococcus pneumoniae [3]): 1.56 mg/L (≈ 2.09 µM); ED50 (Mus musculus [17]): 7.6 mg/kg; MIC (Staphylococcus aureus [18]): 0.2 mg/L (≈ 0.267 µM) |
| CC[C@H]1OC(=O)[C@H](C)[C@@H](O)[C@H](C)[C@@H](OC2O[C@H](C)C[C@H](N(C)C)C2O)[C@@](C)(OC)C[C@@H](C)C(=O)[C@H](C)[C@@H](O)[C@]1(C)O (stereo partly specified) | > 100 mg/L | – | – | – |
| CC[C@H]1OC(=O)[C@H](C)[C@@H](OC(=O)CNC(=O)OCc2ccccc2)[C@H](C)[C@@H](OC2O[C@H](C)C[C@H](N(C)C)C2O)[C@@](C)(OC)C[C@@H](C)C(=O)[C@H](C)[C@@H](O)[C@]1(C)O (stereo partly specified) | 3.13 mg/L (≈ 4.01 µM) | > 100 mg/L | > 100 mg/L | – |
| CC[C@H]1OC(=O)[C@H](C)[C@@H](OC(=O)Cc2ccccc2)[C@H](C)[C@@H](O[C@@H]2O[C@H](C)C[C@H](N(C)C)[C@H]2O)[C@@](C)(OC)C[C@@H](C)C(=O)[C@H](C)[C@@H](O)[C@]1(C)O | 0.78 mg/L (≈ 1.1 µM) | > 100 mg/L | > 100 mg/L | – |
| CC[C@H]1OC(=O)[C@H](C)[C@@H](OC(=O)CC#N)[C@H](C)[C@@H](OC2O[C@H](C)C[C@H](N(C)C)C2O)[C@@](C)(OC)C[C@@H](C)C(=O)[C@H](C)[C@@H](O)[C@]1(C)O (stereo partly specified) | 25 mg/L (≈ 38.1 µM) | > 100 mg/L | > 100 mg/L | – |
| CC[C@H]1OC(=O)[C@H](C)[C@@H](OC(=O)Cc2ccc([N+](=O)[O-])cc2)[C@H](C)[C@@H](O[C@@H]2O[C@H](C)C[C@H](N(C)C)[C@H]2O)[C@@](C)(OC)C[C@@H](C)C(=O)[C@H](C)[C@@H](O)[C@]1(C)O | 0.2 mg/L (≈ 0.266 µM) | > 100 mg/L | 0.39 mg/L (≈ 0.518 µM) | MIC (Enterococcus faecium [19]): 0.05 mg/L (≈ 0.0664 µM); ED50 (Mus musculus [20]): 15.4 mg/kg; MIC (Streptococcus pneumoniae [11]): > 100 mg/L; MIC (Enterococcus faecalis [13]): 0.2 mg/L (≈ 0.266 µM); MIC (Haemophilus influenzae): 25 mg/L (≈ 33.2 µM); MIC (Streptococcus pneumoniae [15]): 0.2 mg/L (≈ 0.266 µM); MIC (Streptococcus pneumoniae [3]): 0.2 mg/L (≈ 0.266 µM); MIC (Staphylococcus aureus [21]): 0.39 mg/L (≈ 0.518 µM) |
